# Assay results reported in patent US20100160401A1, “4-PHENYLIMIDAZOLE-2-THIONE TYROSINASE INHIBITORS AND TREATMENT OR PREVENTION OF PIGMENTARY DISORDERS THEREWITH” (GALDERMA RESEARCH & DEVELOPMENT, BIOT, FRANCE, priority 2007, published 2010).
# Target: T1, tyrosinase (Mus musculus, UniProt P11344)
# T1 construct: the supernatant obtained constitutes the cell lysate used as tyrosinase source in the enzymatic assay; endogenous in cells; host or cells: B16F1 murine melanoma cells, cultured with alpha-MSH, lysed in 1% Igepal and sonicated; the supernatant was used
# T1 sequence (P11344 19-533): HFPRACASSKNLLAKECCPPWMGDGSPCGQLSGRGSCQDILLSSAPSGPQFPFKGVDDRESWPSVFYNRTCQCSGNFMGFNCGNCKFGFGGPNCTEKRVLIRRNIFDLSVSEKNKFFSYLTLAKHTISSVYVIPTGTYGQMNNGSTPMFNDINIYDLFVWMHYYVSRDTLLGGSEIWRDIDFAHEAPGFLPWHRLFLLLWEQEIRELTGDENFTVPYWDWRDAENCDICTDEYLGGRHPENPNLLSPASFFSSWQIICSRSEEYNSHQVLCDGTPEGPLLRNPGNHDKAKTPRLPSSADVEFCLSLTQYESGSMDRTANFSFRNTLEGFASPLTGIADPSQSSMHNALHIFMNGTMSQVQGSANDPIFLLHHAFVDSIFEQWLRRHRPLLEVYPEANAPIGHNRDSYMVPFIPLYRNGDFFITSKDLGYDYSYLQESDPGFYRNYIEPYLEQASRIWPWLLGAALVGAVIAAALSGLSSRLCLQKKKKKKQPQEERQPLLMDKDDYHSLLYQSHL
# Experiment: Tyrosinase activity inhibition assay (B16F1 cell lysate, L-tyrosine substrate, MBTH trapping, absorbance 520 nm)
# Assay type: biochemical
# Details: lysate of B16F1 cells (murine melanoma line) as tyrosinase source, 37° C., reading at 520 nm after 6 hours, read-out: Tyrosine hydroxylase/Dopa oxidase IC50
# Experimental: The activity of the inhibitors is measured starting from a lysate of B16F1 cells (murine melanoma line). In the presence of the L-tyrosine substrate, the tyrosinase present in these cells catalyses the hydroxylation of L-tyrosine to give L-DOPA and then the oxidation of the L-DOPA to give dopaquinone. In the presence of MBTH (3-methyl-2-benzothiazolinone hydrazone), the dopaquinone is trapped so as to form a pink complex which absorbs at 520 nm.
# The B16F1 cells are cultured in DMEM medium+10% foetal calf serum+10^−9 M α-MSH for 4 days at 37° C. under 7% CO2. They are treated with trypsin, washed with PBS, counted and pelleted. The pellet is taken up at 10^7 cells/ml in lysis buffer (10 mM sodium phosphate, pH 6.8-1% Igepal) and the suspension is treated with ultrasound for 10 seconds. After centrifugation for 30 minutes at 4000 rpm, the supernatant obtained constitutes the cell lysate used as tyrosinase source in the enzymatic assay.
# The assays are carried out in duplicate in 384-well plates in a total volume of 50 μl. Each well contains:
# 40 μl of solution containing 1.25 mM L-tyrosine, 6.25 μM L-DOPA (cofactor) and 3.75 mM MBTH in buffer B (62.25 mM sodium phosphate, pH 6.8-2.5% dimethylformamide),
# 5 μl of inhibitor diluted in DMSO,
# 5 μl of cell lysate diluted to ½ in 50 mM Tris HCl buffer, pH 7.5.
# The plate is incubated at 37° C. and a spectrophotometric reading is carried out at 520 nm after incubating for 6 hours. To avoid any possible absorption of the products, the system uses corrected absorbance (absorbance at time 6 h absorbance at time zero).
# The inhibitors are assayed in terms of dose-response so as to calculate an IC50 (dose which inhibits 50% of the enzymatic activity).
# Several internal controls are added to each experiment:
# control for 100% activity: the 5 μl of inhibitor are replaced with 5 μl of DMSO,
# control for 50% activity: the 5 μl of inhibitor are replaced with 5 μl of phenylthiourea at 300 μM in DMSO,
# control for 0% activity: the L-tyrosine substrate is replaced with buffer B.
row,SMILES,IC50 [nM]
1,"Sc1nc(-c2ccccc2)c[nH]1 [Compound 1, 4-phenyl-1,3-dihydroimidazole-2-thione]",250
2,"COc1ccc(-c2c[nH]c(=S)[nH]2)cc1 [Compound 3, 4-(4-methoxyphenyl)-1,3-dihydroimidazole-2-thione]",900
3,"S=c1[nH]cc(-c2cccc(Br)c2)[nH]1 [Compound 4, 4-(3-bromophenyl)-1,3-dihydroimidazole-2-thione]",3000

# Results, then the compound that gave them:
row,IC50 [nM],SMILES
1,300,"Fc1ccc(-c2c[nH]c(=S)[nH]2)cc1 [Compound 8, 4-(4-fluorophenyl)-1,3-dihydroimidazole-2-thione]"
2,600,"Cc1ccc(-c2cnc(S)[nH]2)cc1 [Compound 13, 4-(4-methylphenyl)-1,3-dihydroimidazole-2-thione]"
